# Measured values published in PMC7051184, “C9orf72 arginine-rich dipeptide repeat proteins disrupt karyopherin-mediated nuclear import” (eLife, 2020).
# Where a SMILES comes first, the peptide text is derived from it.
# Experiments:
# BSA = experiment: Bead halo assay, biotinylated BSA-coated beads (non-specific control); type: binding; conditions: AF488-labeled
# Method: Purified WT importin β (pKW485) diluted to 10 µM in XB was combined with 10-molar excess of Alexa Fluor 647 NHS ester (ThermoFisher), using freshly-prepared 10 mM dye in anhydrous DMSO. After incubation on ice for 2 hr, the sample was dialyzed in PBS and concentrated on 30kD MWCO filter (Millipore Sigma) before storage. A similar protocol was used to label BSA with 10-molar excess Sulfo-NHS-LC-biotin (ThermoFisher), followed by dialysis in PBS.
# The bead halo assay was carried out as described with minor modifications ([Patel and Rexach, 2008]), using […] polystyrene beads coated with neutravidin (for biotinylated proteins) or glutathione (for GST-fusion proteins) (Spherotech, Lake Forest, IL). Beads were coated overnight at 4°C at saturating concentrations per manufacturers’ instructions and rinsed 2x in binding buffer (20 mM HEPES [pH 7.4], 150 mM KOAc, 2 mM Mg(OAc)2, 1 mM DTT, 0.1% Tween-20). Immediately prior to the assay, fluorescent bait proteins and beads were combined with 4x assay buffer (40 mM EDTA, 40 mg/ml BSA, 500 mM NaCl, and 0.2% Tween) to a total of 40 µL per well, in optical glass-bottom 96-well plates (Cellvis, Mountain View, CA). Reactions were allowed to equilibrate at room temperature for a minimum of 30 min prior to imaging at 100x on an LSM800 confocal microscope (Zeiss, Oberkochen, Germany). […]
# hnRNPA1 = experiment: DPR aggregation assay and western blot, hnRNPA1; type: biochemical, human; conditions: normalized to untreated HEK cells on the same membrane
# Method: Supernatant and pellet fractions (for all 5 DPRs, and control/buffer only) were prepared as in the nuclear transport assays, by adding 100 µM 10mers to 2.5 mg/ml HEK lysate in 100 µL TRB. Supernatants were boiled in Laemmli (BioRad) for 5 min. Pellets were boiled for 15 min followed by sonication in order to fully disperse aggregates for SDS-PAGE. Equal volumes of supernatant and pellet fractions were run on 4–12% Bolt Bis-Tris Plus gels (ThermoFisher), transferred to nitrocellulose membrane using an iBlot2 dry blotting system (ThermoFisher). Protein loading was analyzed by BLOT-Faststain (G-biosciences, St. Louis, MO), according to the manufacterers’ instructions. For immunodetection, membranes were blocked with 5% non-fat milk in TBST and probed by sequential incubation with the primary antibodies as detailed in the table below. Detection was by HRP-conjugated secondary antibodies/chemiluminescence using an ImageQuant LAS 4000 system (GE, Chicago, IL). To permit sequential probing of membranes without stripping, signals were quenched by incubation with prewarmed 30% H20_2 for 20 min ([Sennepin et al., 2009]). Band intensities were measured by ImageQuant software. For pellet vs. supernatant fractions, all were expressed as percent untreated control. For blots in Figure 1E, samples were run on 4–20% SDS PAGE minigels (ThermoFisher) and blotted to PVDF membranes (Immun-Blot PVDF, Bio-Rad) using the Bio-Rad TransBlot Turbo apparatus, and probed as above. The chemiluminescence signal was captured with a Bio-Rad ChemiDoc XRS+ digital imaging system.
# [1] = target: importin β-mediated nuclear import of Rango (Homo sapiens, UniProt Q14974); experiment: Fractionated Rango transport assay (aggregates present or supernatant only), HeLa; type: cell-based
# importin β-mediated nuclear import of Rango, sequence (Q14974 whole entry): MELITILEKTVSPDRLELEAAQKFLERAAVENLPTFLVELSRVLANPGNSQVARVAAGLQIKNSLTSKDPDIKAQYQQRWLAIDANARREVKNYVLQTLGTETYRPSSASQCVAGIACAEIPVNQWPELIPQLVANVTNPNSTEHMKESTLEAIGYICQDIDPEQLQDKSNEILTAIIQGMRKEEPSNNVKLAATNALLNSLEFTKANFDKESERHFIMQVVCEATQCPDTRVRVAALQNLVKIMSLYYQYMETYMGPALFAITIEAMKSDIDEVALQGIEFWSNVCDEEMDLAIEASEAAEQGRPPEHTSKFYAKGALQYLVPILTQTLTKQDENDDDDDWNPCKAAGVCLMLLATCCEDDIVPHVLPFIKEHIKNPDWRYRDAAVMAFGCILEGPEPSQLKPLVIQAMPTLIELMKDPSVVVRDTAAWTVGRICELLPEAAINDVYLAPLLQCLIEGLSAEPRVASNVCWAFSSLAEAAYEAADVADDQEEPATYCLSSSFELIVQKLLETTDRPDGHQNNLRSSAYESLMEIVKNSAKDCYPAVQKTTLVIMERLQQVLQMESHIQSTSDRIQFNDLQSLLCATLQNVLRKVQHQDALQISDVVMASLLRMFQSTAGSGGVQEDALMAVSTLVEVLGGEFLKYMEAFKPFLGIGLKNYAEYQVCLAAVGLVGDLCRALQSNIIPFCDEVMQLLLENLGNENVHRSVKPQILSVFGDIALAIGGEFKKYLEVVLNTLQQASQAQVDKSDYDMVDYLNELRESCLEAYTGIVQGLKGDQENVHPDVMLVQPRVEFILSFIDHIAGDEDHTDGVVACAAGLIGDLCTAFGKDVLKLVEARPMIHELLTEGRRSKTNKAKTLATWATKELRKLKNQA
# Method: A single cell-derived clone of HeLa cells (ATCC, Manassas, VA; mycoplasma negative and validated by STR profiling) were maintained in OptiMEM (Gibco/ThermoFisher) with 4% FBS and plated on uncoated optical glass-bottom 96 well plates, at appropriate densities to reach 70–90% confluence on the day of the transport assay. To permeabilize, cells were rinsed for 2 min in ice-cold PBS, and permeabilized on ice for 10 min in 15–30 µg/mL digitonin (Calbiochem, San Diego, CA) in permeabilization buffer (PRB, 20 mM HEPES, 110 mM KOAc, 5 mM Mg(OAc)2, 0.5 mM EGTA, 250 mM sucrose, pH 7.5, with protease inhibitor cocktail). Following permeabilization, cells were placed on ice and rinsed 3 × 5 min in transport buffer (TRB, 20 mM HEPES, 110 mM KOAc, 2 mM Mg(OAc)2, 5 mM NaOAc, 0.5 mM EGTA, 250 mM sucrose, pH 7.3, with protease inhibitor cocktail). The optimal digitonin concentration varied by cell density and passage number, and was optimized prior to each set of assays for the ability to permeabilize the majority of plasma membranes while maintaining nuclear exclusion of a 70 kD fluorescent dextran (ThermoFisher).
# Reaction mixes consisting of 2.5 mg/ml lysate, ER, fluorescent cargo (200 nM Rango and YFP-M9-CFP, 500 nM GST-GFP-NLS), Hoechst, DPRs, RNA, or inhibitors (100 µM importazole (IPZ, Millipore Sigma); 0.8 mg/mL wheat germ agglutinin (WGA, Millipore Sigma) were assembled on ice during cell permeabilization. DPRs or inhibitors were allowed to equilibrate in cell lysate for at least 30 min prior to initiation of transport. Every plate included: (1) Cargo alone: fluorescent cargo, but no ER or lysate, (2) Untreated controls: fluorescent cargo, ER, and lysate, and (3) Inhibitor: fluorescent cargo, ER, lysate, and IPZ (Rango and GST-GFP-NLS reactions) or WGA (YFP-M9-CFP). Preassembled transport reactions were then transferred onto permeabilized cells via multichannel pipette, and allowed to proceed at room temperature for 2 hr (Rango, YFP-M9-CFP) or 4 hr (GST-GFP-NLS). Cells were fixed in 4% paraformaldehyde/PBS, rinsed 2x with PBS, and transferred to 50% glycerol/PBS for immediate imaging.
# For a subset of neuron transport assays, transport was monitored live via time lapse imaging every 5 min for 30 min. […]
# Multiple non-overlapping fields per well (4 for time-lapse imaging, 9-16 for fixed imaging), were captured at 40x on an ImageXpress Micro XLS high-content microscope (Molecular Devices, San Jose, CA), and the ratio of nuclear to cytoplasmic fluorescence intensity was calculated using the MetaXpress automated translocation-enhanced module. […] Resulting N/C ratios were expressed as % untreated, to permit comparisons across biological replicates.
compound,measurement,setting,value
N=C(N)NCCC[C@H](NC(=O)[C@@H]1CCCN1C(=O)[C@H](CCCNC(=N)N)NC(=O)[C@@H]1CCCN1C(=O)[C@H](CCCNC(=N)N)NC(=O)[C@@H]1CCCN1C(=O)[C@H](CCCNC(=N)N)NC(=O)[C@@H]1CCCN1C(=O)[C@H](CCCNC(=N)N)NC(=O)[C@@H]1CCCN1C(=O)[C@H](CCCNC(=N)N)NC(=O)[C@@H]1CCCN1C(=O)[C@H](CCCNC(=N)N)NC(=O)[C@@H]1CCCN1C(=O)[C@H](CCCNC(=N)N)NC(=O)[C@@H]1CCCN1C(=O)[C@H](CCCNC(=N)N)NC(=O)[C@@H]1CCCN1C(=O)[C@H](CCCNC(=N)N)NC(=O)[C@@H]1CCCN1)C(=O)O [PR10] (H-PRPRPRPRPRPRPRPRPRPR-OH; N-terminus and C-terminus assumed),Binding to BSA-coated beads,"BSA; 200 nM, binding buffer",modest non-specific binding
same,Nonspecific binding to control beads,BSA; 1 mg/ml neuronal lysate added,nonspecific binding decreased
same,"hnRNPA1 band density, % control","hnRNPA1; Pellet, Blot 1",165.2 % control
same,"hnRNPA1 band density, % control","hnRNPA1; Pellet, Blot 2",367.1 % control
same,"hnRNPA1 band density, % control","hnRNPA1; Supernatant, Blot 1",61.7 % control
same,"hnRNPA1 band density, % control","hnRNPA1; Supernatant, Blot 2",58.6 % control
same,Rango import with supernatant only (aggregates removed by centrifugation),[1],nuclear import remained perturbed
same,Rango import with supernatant only plus RNA,[1]; RNA added,restored by the addition of RNA
